Results: article PMC7734281, “Functionalized Oxoindolin Hydrazine Carbothioamide Derivatives as Highly Potent Inhibitors of Nucleoside Triphosphate Diphosphohydrolases” (Frontiers in Pharmacology, 2020)

What was measured:
h-NTPDase1 = target: T1, h-NTPDase1 (Homo sapiens, UniProt P49961); parameters: method as in Lecka et al., 2013; settings: selective inhibitor of h-NTPDase1; ref Lecka et al., 2013; cited from earlier work
T1 construct: made in house; host or cells: COS-7 cells, transient transfection; crude protein extract after sonication
T1 sequence (P49961 1-510): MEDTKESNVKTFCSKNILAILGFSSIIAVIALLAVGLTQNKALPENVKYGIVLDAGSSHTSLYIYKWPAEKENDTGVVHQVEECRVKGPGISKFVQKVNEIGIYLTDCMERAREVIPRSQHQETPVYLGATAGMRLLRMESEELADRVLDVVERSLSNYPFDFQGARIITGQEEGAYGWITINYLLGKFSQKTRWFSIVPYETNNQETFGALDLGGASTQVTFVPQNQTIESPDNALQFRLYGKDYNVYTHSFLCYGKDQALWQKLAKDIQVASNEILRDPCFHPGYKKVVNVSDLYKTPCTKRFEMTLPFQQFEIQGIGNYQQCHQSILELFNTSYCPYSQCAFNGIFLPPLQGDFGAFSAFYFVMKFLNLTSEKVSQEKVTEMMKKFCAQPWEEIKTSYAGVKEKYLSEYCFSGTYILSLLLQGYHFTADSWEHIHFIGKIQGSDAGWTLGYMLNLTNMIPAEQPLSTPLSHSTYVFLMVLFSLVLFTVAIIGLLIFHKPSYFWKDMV

mice pancreatic islets = assay: Glucose stimulated insulin secretion in isolated mice islets (ELISA); format: cell-based, BALB/c mice; settings: 16.7 mM glucose, compound 200 µM, 1 h, 37°C
Method: Six to eight week old BALB/c mice, weighing 30–40 g, were used in the study. These mice were obtained from the animal house of COMSATS University Islamabad, Abbottabad Campus and placed under standard temperature (25 ± 2°C) and humidity (50–55%) conditions with an alternate 12-h light/dark cycle. All the experimental animals were provided with a continuous supply of food and water. The animals were handled according to internationally accepted guidelines of animal care and use. Moreover, this study was reviewed and approved by Research Ethics Committee, Department of Pharmacy, COMSATS University Islamabad, Abbottabad Campus. (Protocol number: PHM.Eth./CS-M01-020-1609)
The islets were isolated from mice pancreas as previously described, by a process involving collagenase digestion ([Hameed et al., 2018]). Briefly, mice were anesthetized with sodium thiopental (30 mg kg) and sacrificed by cervical dislocation to block the flow of blood. Immediately, mice were transferred to biological hood and their abdominal cavity was opened completely by making an incision on abdomen. In order to stop the bile flow toward duodenum, ampulla was located and clamped under dissection microscope. Then, distention of pancreas was carried out by injecting 3 ml of collagenase solution (1 mg/ml) through common bile duct. The distended pancreas was removed as a whole, transferred to a 50 ml tube and digested in collagenase solution at 37°C. After 15 min, digestion was stopped by placing the tube on ice and 20 ml of Hank’s Balanced Salt Solution (HBSS) was added to it. Thus the digested islets were washed with HBSS (two to three times) by centrifugation (1,000 rpm) for 1 min at 4°C. Finally, islets were purified by passing through a cell strainer (70 µm) and isolated manually (by hand picking) under stereomicroscope (Euromex, Arnhem, Netherlands). All the purification and isolation procedures were carried out in HBSS, containing no magnesium, calcium and phenol red.
Krebs-Ringer bicarbonate buffer (KRBB) was used as an incubation medium for islets and was composed of NaCl (118 mM), KCl (4.7 mM), CaCl2 (1.9 mM), MgSO4 (1.2 mM), NaHCO3 (25 mM), 4-(2-hydroxyethyl)-1-piperazineethanesulfonic acid (HEPES, 10 mM) and bovine serum albumin (0.1%). The pH of KRBB was maintained at 7.4. The isolated islets were size-matched and pre-incubated (3 islets/tube) for 45 min at 37°C in KRBB, supplemented with 3 mM glucose. Thereafter, incubation medium was replaced with fresh KRBB (containing 16.7 mM glucose) and islets were incubated for 60 min at 37°C with or without test substance(s). After incubation, supernatant was collected and stored at −40°C until further use. Finally, collected samples were properly diluted and insulin secretion was estimated with ultra-sensitive mouse insulin ELISA kit (Crystal Chem Inc., Downers Grove, United States) according to the manufacturer’s instructions. The absorbance was measured at 450 nm and insulin secretion was normalized for number of islets used. ([Hameed et al., 2018]).

For CCCCSc1nc2c(N)ncnc2n1[C@@H]1O[C@H](COP(=O)(O)OP(=O)(O)OP(=O)(O)O)[C@@H](O)[C@H]1O [8-Bus-ATP], the Ki (h-NTPDase1) is given as 800 ± 200 nM.

With O=C1Nc2ccccc2C1=O [isatin] the “Effect on glucose stimulated insulin secretion” value (mice pancreatic islets) was “Neither suramin nor isatin had any significant effect”.
